Converted amounts (≈) assume the structure as drawn. Counter-ions that a name gives are not always drawn.
Tested on: VISA clinical isolates of MRSA (VI-MRSA) and of MSSA (VI-MSSA)
Experiment: microbe, parasite or virus in culture
Type: cell-based, Staphylococcus aureus
Procedure: Each of the bacterial strains listed in Table 1-1 was shake-cultured at 37° C. overnight in 4 mL of a medium (Tryptical Soy Broth: TSB, product of Becton Dickinson and Company). FDA209P was used as a control.
After completion of culturing, the resultant culture was suspended in a cation-adjusted Mueller Hinton Broth (CAMHB, product of Becton Dickinson and Company). Then, the obtained bacterial culture was adjusted in absorbance with the CAMHB so that the absorbance at 578 nm of the bacterial culture was adjusted to 0.3 measured by an absorption spectrometer. In addition, the resultant bacterial culture was 500-fold diluted with the CAMHB.
Each of the 500-fold diluted, pre-cultured bacterial cultures was added at 50 μL/well to the CAMHB containing the quinolones and the nybomycins at various concentrations (50 μL/well), followed by statically culturing at 37° C. overnight.
After completion of culturing, the growth of the bacteria was visually determined based on turbidity to measure MIC in each bacterial strain.
Here, the glycopeptides used were VCM and TEIC. The β-lactam used was OXA.

[1] = Staphylococcus aureus, 99/3700-W, VI-MRSA, The United Kingdom
[2] = Staphylococcus aureus, 99/3759-V, VI-MRSA, The United Kingdom
[3] = Staphylococcus aureus, 28160, VI-MRSA, South African Republic
[4] = Staphylococcus aureus, 98141, VI-MRSA, France
[5] = Staphylococcus aureus, A7 (JCSC4842), VI-MRSA, Taiwan
[6] = Staphylococcus aureus, AMC11094, VI-MRSA, Korea
[7] = Staphylococcus aureus, B7 (JCSC4852), VI-MRSA, Taiwan
[8] = Staphylococcus aureus, BR1, VI-MRSA, Brazil
[9] = Staphylococcus aureus, BR2, VI-MRSA, Brazil
[10] = Staphylococcus aureus, BR3, VI-MRSA, Brazil
[11] = Staphylococcus aureus, BR4, VI-MRSA, Brazil
[12] = Staphylococcus aureus, BR5, VI-MRSA, Brazil
[13] = Staphylococcus aureus, HIP06297, VI-MRSA, America
[14] = Staphylococcus aureus, HIP06854, VI-MRSA, America
[15] = Staphylococcus aureus, HIP07920, VI-MRSA, America
[16] = Staphylococcus aureus, HIP07930, VI-MRSA, America
[17] = Staphylococcus aureus, HIP08926, VI-MRSA, America
[18] = Staphylococcus aureus, HIP09143, VI-MRSA, America
[19] = Staphylococcus aureus, HIP09313, VI-MRSA, America
[20] = Staphylococcus aureus, HIP09433, VI-MRSA, America
[21] = Staphylococcus aureus, HIP09662, VI-MRSA, America
[22] = Staphylococcus aureus, HIP09735, VI-MRSA, America
[23] = Staphylococcus aureus, HIP09737, VI-MSSA, America
[24] = Staphylococcus aureus, HIP09740, VI-MRSA, America
[25] = Staphylococcus aureus, HIP10267, VI-MRSA, America
[26] = Staphylococcus aureus, HIP10540, VI-MRSA, America
[27] = Staphylococcus aureus, HIP12864, VI-MRSA, America
[28] = Staphylococcus aureus, HIP13036, VI-MRSA, America
[29] = Staphylococcus aureus, HIP13057, VI-MRSA, America
[30] = Staphylococcus aureus, IL (HIP7737), VI-MRSA, America
[31] = Staphylococcus aureus, JCSC7193, VI-MRSA, Thailand
[32] = Staphylococcus aureus, JCSC7195, VI-MRSA, Thailand
[33] = Staphylococcus aureus, JCSC7203, VI-MRSA, Thailand
[34] = Staphylococcus aureus, LIM2, VI-MRSA, France
[35] = Staphylococcus aureus, LY-1999-01, VI-MSSA, Oman
[36] = Staphylococcus aureus, LY-1999-03, VI-MRSA, Oman
[37] = Staphylococcus aureus, MI (HIP5827), VI-MRSA, America
[38] = Staphylococcus aureus, MRSA / MSSA / NRS 76 / VISA, NRS76, VI-MSSA, America
[39] = Staphylococcus aureus, MRSA / MSSA / NRS 79 / VISA, NRS79, VI-MRSA, America
[40] = Staphylococcus aureus, MRSA / MSSA / NRS 118 / VISA, NRS118, VI-MRSA, America
[41] = Staphylococcus aureus, MRSA / MSSA / NRS 126 / VISA, NRS126, VI-MRSA, America
[42] = Staphylococcus aureus, Mu3, VI-MRSA, Japan
[43] = Staphylococcus aureus, Mu50, VI-MRSA, Japan
[44] = Staphylococcus aureus, NJ (HIP5836), VI-MRSA, America
[45] = Staphylococcus aureus, P1V44, VI-MSSA, Belgium
[46] = Staphylococcus aureus, PC, VI-MRSA, America
[47] = Staphylococcus aureus, SA MER-S6, VI-MSSA, France
[48] = Staphylococcus aureus, SA MER-S12, VI-MSSA, France
[49] = Staphylococcus aureus, SA MER-S20, VI-MSSA, France

SMILES: C[C@@H]1CN(c2c(F)c(N)c3c(=O)c(C(=O)O)cn(C4CC4)c3c2F)C[C@H](C)N1 [SPFX, sparfloxacin]
- MIC [1]: 16 mg/L (≈ 40.8 µM)
- MIC [2]: 16 mg/L (≈ 40.8 µM)
- MIC [3]: 32 mg/L (≈ 81.5 µM)
- MIC [4]: 16 mg/L (≈ 40.8 µM)
- MIC [5]: 8 mg/L (≈ 20.4 µM)
- MIC [6]: 32 mg/L (≈ 81.5 µM)
- MIC [7]: 8 mg/L (≈ 20.4 µM)
- MIC [8]: 32 mg/L (≈ 81.5 µM)
- MIC [9]: 32 mg/L (≈ 81.5 µM)
- MIC [10]: 32 mg/L (≈ 81.5 µM)
- MIC [11]: 16 mg/L (≈ 40.8 µM)
- MIC [12]: 16 mg/L (≈ 40.8 µM)
- MIC [13]: 8 mg/L (≈ 20.4 µM)
- MIC [14]: 16 mg/L (≈ 40.8 µM)
- MIC [15]: 16 mg/L (≈ 40.8 µM)
- MIC [16]: 16 mg/L (≈ 40.8 µM)
- MIC [17]: 16 mg/L (≈ 40.8 µM)
- MIC [18]: 16 mg/L (≈ 40.8 µM)
- MIC [19]: 8 mg/L (≈ 20.4 µM)
- MIC [20]: 64 mg/L (≈ 163 µM)
- MIC [21]: 16 mg/L (≈ 40.8 µM)
- MIC [22]: 16 mg/L (≈ 40.8 µM)
- MIC [23]: 16 mg/L (≈ 40.8 µM)
- MIC [24]: 16 mg/L (≈ 40.8 µM)
- MIC [25]: 16 mg/L (≈ 40.8 µM)
- MIC [26]: 16 mg/L (≈ 40.8 µM)
- MIC [27]: 32 mg/L (≈ 81.5 µM)
- MIC [28]: 4 mg/L (≈ 10.2 µM)
- MIC [29]: 8 mg/L (≈ 20.4 µM)
- MIC [30]: 32 mg/L (≈ 81.5 µM)
- MIC [31]: 16 mg/L (≈ 40.8 µM)
- MIC [32]: 32 mg/L (≈ 81.5 µM)
- MIC [33]: 16 mg/L (≈ 40.8 µM)
- MIC [34]: 16 mg/L (≈ 40.8 µM)
- MIC [35]: 2 mg/L (≈ 5.1 µM)
- MIC [36]: 8 mg/L (≈ 20.4 µM)
- MIC [37]: 32 mg/L (≈ 81.5 µM)
- MIC [38]: 32 mg/L (≈ 81.5 µM)
- MIC [39]: 16 mg/L (≈ 40.8 µM)
- MIC [40]: 32 mg/L (≈ 81.5 µM)
- MIC [41]: 8 mg/L (≈ 20.4 µM)
- MIC [42]: 16 mg/L (≈ 40.8 µM)
- MIC [43]: 16 mg/L (≈ 40.8 µM)
- MIC [44]: 32 mg/L (≈ 81.5 µM)
- MIC [45]: 4 mg/L (≈ 10.2 µM)
- MIC [46]: 16 mg/L (≈ 40.8 µM)
- MIC [47]: 0.25 mg/L (≈ 0.637 µM)
- MIC [48]: 0.25 mg/L (≈ 0.637 µM)
- MIC [49]: 0.125 mg/L (≈ 0.319 µM)

SMILES: NC1CCN(c2nc3c(cc2F)c(=O)c(C(=O)O)cn3-c2ccc(F)cc2F)C1 (centres unmarked) [TFLX, tosufloxacin tosylate]
- MIC [1]: 8 mg/L
- MIC [2]: 16 mg/L
- MIC [3]: 32 mg/L
- MIC [4]: 32 mg/L
- MIC [5]: 32 mg/L
- MIC [6]: > 128 mg/L
- MIC [7]: 16 mg/L
- MIC [8]: 128 mg/L
- MIC [9]: 32 mg/L
- MIC [10]: 32 mg/L
- MIC [11]: > 128 mg/L
- MIC [12]: > 128 mg/L
- MIC [13]: 128 mg/L
- MIC [14]: 128 mg/L
- MIC [15]: 4 mg/L
- MIC [16]: > 128 mg/L
- MIC [17]: 128 mg/L
- MIC [18]: > 128 mg/L
- MIC [19]: 128 mg/L
- MIC [20]: > 128 mg/L
- MIC [21]: > 128 mg/L
- MIC [22]: > 128 mg/L
- MIC [23]: > 128 mg/L
- MIC [24]: > 128 mg/L
- MIC [25]: > 128 mg/L
- MIC [26]: 128 mg/L
- MIC [27]: > 128 mg/L
- MIC [28]: 64 mg/L
- MIC [29]: > 128 mg/L
- MIC [30]: > 128 mg/L
- MIC [31]: 128 mg/L
- MIC [32]: > 128 mg/L
- MIC [33]: 128 mg/L
- MIC [34]: > 128 mg/L
- MIC [35]: 8 mg/L
- MIC [36]: 32 mg/L
- MIC [37]: 16 mg/L
- MIC [38]: > 128 mg/L
- MIC [39]: > 128 mg/L
- MIC [40]: > 128 mg/L
- MIC [41]: 128 mg/L
- MIC [42]: 16 mg/L
- MIC [43]: > 128 mg/L
- MIC [44]: 32 mg/L
- MIC [45]: 8 mg/L
- MIC [46]: 128 mg/L
- MIC [47]: 0.25 mg/L
- MIC [48]: 0.25 mg/L
- MIC [49]: 1 mg/L

Source: patent US20120258980A1, “Antibacterial Agent for Drug-Resistant Bacteria, Method for Screening for Same, and Use of Same” (priority 2009, published 2012)
